Several values for one entry are separate records, joined by “and”; a condition that tells them apart may be missing. Equal values may be shown once.
Columns and labels:
[1] = test system: Drosophila melanogaster RyR G4915E; experiment: Bioassay of gene-edited Drosophila melanogaster (feeding, mortality after 24 h); type: in vivo; settings: 24 h
[2] = test system: Drosophila melanogaster RyR M4758I; experiment: as above; type: in vivo; settings: 24 h

Cc1cc(C(F)(C(F)(F)F)C(F)(F)F)ccc1NC(=O)c1cccc(I)c1C(=O)NC(C)(C)CS(C)(=O)=O [FLU, flubendiamide]
death rate ([1]; FLU 1.000 uM): 0%
death rate ([1]; FLU 3.333 uM): 0%
death rate ([1]; FLU 10.000 uM): 0%
death rate ([1]; FLU 33.333 uM): 0%
death rate ([1]; FLU 100.000 uM): 0%
death rate ([1]; FLU 333.333 uM): 0%
death rate ([2]; FLU 0.033 uM): 0%
death rate ([2]; FLU 0.100 uM): 0% and 10%
death rate ([2]; FLU 0.333 uM): 10%
death rate ([2]; FLU 1.000 uM): 10% and 20%
death rate ([2]; FLU 3.333 uM): 20% and 30%
death rate ([2]; FLU 10.000 uM): 50%
death rate ([2]; FLU 33.333 uM): 60% and 70%
death rate ([2]; FLU 100.000 uM): 100%
death rate ([2]; FLU 333.333 uM): 100%

— publication PMC11491487 (Nature Communications, 2024)
